Holding throughout (assay): biochemical
Holding throughout (assay type): biochemical

In test [1] the target is 363 human kinases (including Aurora A/B/C) (Homo sapiens, UniProt P12931). Conditions: c-Src, [ATP] 100 µM; for remaining activity at 0.5 µM / remaining activity at 0.1 µM: read-out: % Enzyme Activity (relative to DMSO controls); for remaining activity at 0.1 µM: 100 nM.
Description: (§1) However, the Aurora A/B selectivity ratios derived from our in vitro and in vivo data can be compared to prioritize inhibitors.
Test [2] concerns the target 363 human kinases (including Aurora A/B/C) (Homo sapiens, UniProt Q9NYL2). The settings on record: ZAK/MLTK; for remaining activity at 0.5 µM / remaining activity at 0.1 µM: read-out: % Enzyme Activity (relative to DMSO controls); for remaining activity at 0.1 µM: 100 nM.
Description: as §1
Test [3] addresses T1, 363 human kinases (including Aurora A/B/C) (Homo sapiens, UniProt Q8IW41).
T1 sequence (Q8IW41 1-473): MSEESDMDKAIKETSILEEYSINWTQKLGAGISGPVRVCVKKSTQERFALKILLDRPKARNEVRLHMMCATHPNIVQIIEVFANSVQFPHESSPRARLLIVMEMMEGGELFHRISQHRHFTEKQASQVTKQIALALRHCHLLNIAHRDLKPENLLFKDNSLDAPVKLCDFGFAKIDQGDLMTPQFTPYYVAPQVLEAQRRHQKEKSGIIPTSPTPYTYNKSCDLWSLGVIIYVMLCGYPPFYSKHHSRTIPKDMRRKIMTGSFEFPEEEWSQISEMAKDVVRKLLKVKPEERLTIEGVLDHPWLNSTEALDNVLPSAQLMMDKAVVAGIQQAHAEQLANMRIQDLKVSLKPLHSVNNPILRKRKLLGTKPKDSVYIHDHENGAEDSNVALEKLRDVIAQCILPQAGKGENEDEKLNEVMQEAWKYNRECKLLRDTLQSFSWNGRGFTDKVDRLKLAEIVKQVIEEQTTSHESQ
The settings on record: MAPKAPK5/PRAK; for remaining activity at 0.5 µM / remaining activity at 0.1 µM: read-out: % Enzyme Activity (relative to DMSO controls); for remaining activity at 0.1 µM: 100 nM.
Description: as §1

The target of test [4] is T2, 363 human kinases (including Aurora A/B/C) (Homo sapiens, UniProt Q9UL54).
T2 sequence (Q9UL54 1-1235): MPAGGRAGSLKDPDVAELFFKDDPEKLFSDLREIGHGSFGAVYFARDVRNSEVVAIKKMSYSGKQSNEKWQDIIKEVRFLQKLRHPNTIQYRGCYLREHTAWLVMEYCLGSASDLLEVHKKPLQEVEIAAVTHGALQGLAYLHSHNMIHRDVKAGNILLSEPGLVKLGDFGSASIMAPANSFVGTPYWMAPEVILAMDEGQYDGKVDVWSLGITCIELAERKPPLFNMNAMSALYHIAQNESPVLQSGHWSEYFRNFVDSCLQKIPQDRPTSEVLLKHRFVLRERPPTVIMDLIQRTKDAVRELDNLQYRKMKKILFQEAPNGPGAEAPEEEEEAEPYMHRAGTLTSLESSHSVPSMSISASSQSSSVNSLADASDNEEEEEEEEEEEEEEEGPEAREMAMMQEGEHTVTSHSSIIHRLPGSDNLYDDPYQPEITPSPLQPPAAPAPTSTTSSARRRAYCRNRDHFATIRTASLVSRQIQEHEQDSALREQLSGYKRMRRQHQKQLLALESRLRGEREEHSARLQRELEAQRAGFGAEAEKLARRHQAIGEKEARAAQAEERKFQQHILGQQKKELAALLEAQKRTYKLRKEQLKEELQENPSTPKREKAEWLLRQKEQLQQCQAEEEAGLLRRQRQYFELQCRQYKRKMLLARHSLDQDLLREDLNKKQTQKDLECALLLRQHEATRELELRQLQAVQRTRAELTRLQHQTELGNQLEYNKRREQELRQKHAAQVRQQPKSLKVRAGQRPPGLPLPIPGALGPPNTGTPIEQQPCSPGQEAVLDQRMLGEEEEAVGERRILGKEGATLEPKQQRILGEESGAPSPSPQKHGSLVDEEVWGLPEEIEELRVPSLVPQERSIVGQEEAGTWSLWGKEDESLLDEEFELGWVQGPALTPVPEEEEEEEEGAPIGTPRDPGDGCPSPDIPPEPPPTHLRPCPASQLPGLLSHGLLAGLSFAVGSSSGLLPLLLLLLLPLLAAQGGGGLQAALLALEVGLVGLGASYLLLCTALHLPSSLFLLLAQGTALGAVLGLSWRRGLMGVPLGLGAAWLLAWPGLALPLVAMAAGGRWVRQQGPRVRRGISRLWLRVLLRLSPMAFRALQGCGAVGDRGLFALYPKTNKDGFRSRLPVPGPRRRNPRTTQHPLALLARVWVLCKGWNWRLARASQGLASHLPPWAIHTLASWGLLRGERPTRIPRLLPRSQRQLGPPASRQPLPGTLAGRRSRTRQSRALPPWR
Conditions: TAOK2/TAO1; for remaining activity at 0.5 µM / remaining activity at 0.1 µM: read-out: % Enzyme Activity (relative to DMSO controls); for remaining activity at 0.1 µM: 100 nM.
Description: as §1

Test [5] deals with 363 human kinases (including Aurora A/B/C) (Homo sapiens, UniProt O00506). Conditions: STK25/YSK1; for remaining activity at 0.5 µM / remaining activity at 0.1 µM: read-out: % Enzyme Activity (relative to DMSO controls); for remaining activity at 0.1 µM: 100 nM.
363 human kinases (including Aurora A/B/C) (Homo sapiens, UniProt O00506), sequence (O00506 whole entry): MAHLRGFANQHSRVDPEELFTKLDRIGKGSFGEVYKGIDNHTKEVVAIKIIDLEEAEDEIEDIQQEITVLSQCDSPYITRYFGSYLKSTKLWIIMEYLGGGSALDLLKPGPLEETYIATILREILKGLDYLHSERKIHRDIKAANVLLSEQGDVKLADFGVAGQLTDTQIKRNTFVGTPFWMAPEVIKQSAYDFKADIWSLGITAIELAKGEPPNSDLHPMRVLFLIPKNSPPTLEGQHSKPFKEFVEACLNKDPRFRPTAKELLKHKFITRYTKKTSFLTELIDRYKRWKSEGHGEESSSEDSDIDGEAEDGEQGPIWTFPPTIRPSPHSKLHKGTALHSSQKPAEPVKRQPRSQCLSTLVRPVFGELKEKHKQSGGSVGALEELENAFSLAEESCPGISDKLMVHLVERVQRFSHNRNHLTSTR
Description: as §1
Test [6] concerns the target T3, 363 human kinases (including Aurora A/B/C) (Homo sapiens, UniProt Q9UBE8).
T3 sequence (Q9UBE8 1-527): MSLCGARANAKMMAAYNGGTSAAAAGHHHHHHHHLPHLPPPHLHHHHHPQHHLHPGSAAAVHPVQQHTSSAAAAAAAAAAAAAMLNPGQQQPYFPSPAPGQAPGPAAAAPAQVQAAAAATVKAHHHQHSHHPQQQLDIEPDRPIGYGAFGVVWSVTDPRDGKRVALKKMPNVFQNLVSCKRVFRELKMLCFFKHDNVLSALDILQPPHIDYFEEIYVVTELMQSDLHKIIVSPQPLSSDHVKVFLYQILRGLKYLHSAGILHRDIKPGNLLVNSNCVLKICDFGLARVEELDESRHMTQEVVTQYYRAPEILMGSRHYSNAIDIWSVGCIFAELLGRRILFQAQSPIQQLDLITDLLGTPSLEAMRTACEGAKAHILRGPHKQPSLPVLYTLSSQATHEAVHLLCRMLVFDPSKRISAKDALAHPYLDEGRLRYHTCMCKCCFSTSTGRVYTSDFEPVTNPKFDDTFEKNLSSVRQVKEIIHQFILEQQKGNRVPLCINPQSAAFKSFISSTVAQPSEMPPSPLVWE
The settings on record: NLK; for remaining activity at 0.5 µM / remaining activity at 0.1 µM: read-out: % Enzyme Activity (relative to DMSO controls); for remaining activity at 0.1 µM: 100 nM.
Description: as §1

The target in test [7] is 363 human kinases (including Aurora A/B/C) (Homo sapiens, UniProt Q9HCP0). The settings on record: CK1g1, [ATP] 20 µM; for remaining activity at 0.5 µM / remaining activity at 0.1 µM: read-out: % Enzyme Activity (relative to DMSO controls); for remaining activity at 0.1 µM: 100 nM.
363 human kinases (including Aurora A/B/C) (Homo sapiens, UniProt Q9HCP0), sequence (Q9HCP0 whole entry): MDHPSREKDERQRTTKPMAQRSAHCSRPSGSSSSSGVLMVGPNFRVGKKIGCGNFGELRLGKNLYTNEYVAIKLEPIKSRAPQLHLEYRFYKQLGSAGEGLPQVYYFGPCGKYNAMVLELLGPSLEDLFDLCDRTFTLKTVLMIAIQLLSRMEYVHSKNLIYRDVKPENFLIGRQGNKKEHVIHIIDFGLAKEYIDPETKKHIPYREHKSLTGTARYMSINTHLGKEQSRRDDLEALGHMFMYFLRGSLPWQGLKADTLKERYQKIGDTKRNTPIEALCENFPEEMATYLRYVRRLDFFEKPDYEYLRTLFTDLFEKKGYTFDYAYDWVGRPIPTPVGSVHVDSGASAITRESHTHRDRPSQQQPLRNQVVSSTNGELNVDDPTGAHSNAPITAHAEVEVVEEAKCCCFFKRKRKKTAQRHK
Description: as §1

363 human kinases (including Aurora A/B/C) (Homo sapiens, UniProt Q9NYL2), sequence (Q9NYL2 whole entry): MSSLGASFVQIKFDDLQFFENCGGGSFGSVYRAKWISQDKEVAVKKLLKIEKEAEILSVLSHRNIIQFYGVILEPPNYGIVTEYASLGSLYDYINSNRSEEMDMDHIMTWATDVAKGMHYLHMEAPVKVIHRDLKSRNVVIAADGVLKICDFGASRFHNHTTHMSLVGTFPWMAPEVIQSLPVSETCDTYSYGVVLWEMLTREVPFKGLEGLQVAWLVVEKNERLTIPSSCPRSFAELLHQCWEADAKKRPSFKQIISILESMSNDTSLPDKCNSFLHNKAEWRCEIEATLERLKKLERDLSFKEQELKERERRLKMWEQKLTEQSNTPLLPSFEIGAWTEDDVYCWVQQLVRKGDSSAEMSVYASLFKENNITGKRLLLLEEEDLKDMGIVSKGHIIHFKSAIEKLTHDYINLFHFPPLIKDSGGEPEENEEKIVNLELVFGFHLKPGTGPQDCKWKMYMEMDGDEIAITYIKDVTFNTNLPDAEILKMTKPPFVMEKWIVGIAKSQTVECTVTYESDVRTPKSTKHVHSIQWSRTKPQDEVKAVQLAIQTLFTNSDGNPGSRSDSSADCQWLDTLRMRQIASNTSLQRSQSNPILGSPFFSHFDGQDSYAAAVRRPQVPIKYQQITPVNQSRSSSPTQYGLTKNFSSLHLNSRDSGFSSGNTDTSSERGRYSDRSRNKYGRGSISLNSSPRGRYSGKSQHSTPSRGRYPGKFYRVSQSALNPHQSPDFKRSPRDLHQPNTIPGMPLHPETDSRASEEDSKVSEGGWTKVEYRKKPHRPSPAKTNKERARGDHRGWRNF
363 human kinases (including Aurora A/B/C) (Homo sapiens, UniProt P12931), sequence (P12931 whole entry): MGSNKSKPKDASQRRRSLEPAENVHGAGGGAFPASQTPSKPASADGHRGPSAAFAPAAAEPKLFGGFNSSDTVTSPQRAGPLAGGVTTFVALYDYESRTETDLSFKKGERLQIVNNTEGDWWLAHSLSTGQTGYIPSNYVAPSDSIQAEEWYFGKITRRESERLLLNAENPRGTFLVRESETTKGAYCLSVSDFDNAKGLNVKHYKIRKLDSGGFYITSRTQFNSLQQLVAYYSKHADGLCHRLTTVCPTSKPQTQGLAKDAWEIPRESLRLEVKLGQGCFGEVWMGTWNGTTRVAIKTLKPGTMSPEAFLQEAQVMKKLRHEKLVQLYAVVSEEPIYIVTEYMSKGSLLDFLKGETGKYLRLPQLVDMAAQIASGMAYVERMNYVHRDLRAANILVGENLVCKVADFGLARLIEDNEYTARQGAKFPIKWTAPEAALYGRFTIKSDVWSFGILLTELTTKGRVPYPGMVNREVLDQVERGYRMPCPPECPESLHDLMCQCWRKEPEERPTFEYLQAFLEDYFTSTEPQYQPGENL

As to `O=C(c1cccc(Cl)c1F)N1CCN(Cc2cccc(Nc3nccs3)n2)CC1` [MK-8745], the “% Enzyme Activity (relative to DMSO controls)” value was determined as 35.90% in test [1] (500 nM); 91.42% in test [2] (500 nM); 102.03% in test [3] (500 nM); 97.14% in test [4] (500 nM); 99.16% in test [5] (500 nM); 97.25% in test [6] (500 nM). Further, the “% Enzyme Activity (relative to DMSO controls)” value in test [7] (500 nM) amounted to 98.16%. Moreover, the remaining activity at 0.5 µM is 36.4% in test [1] (500 nM); 91.9% in test [2] (500 nM); 103% in test [3] (500 nM); 97.6% in test [4] (500 nM); 100% in test [5] (500 nM); 98.5% in test [6] (500 nM). In addition, the remaining activity at 0.5 µM in test [7] (500 nM) was 98.7%.
Take `CCn1cc(-c2ccnc3[nH]c(-c4cccc(CN(C)C)c4)cc23)c(-c2ccc(NC(=O)N(C)C)cc2)n1` [GSK1070916]: the remaining activity at 0.1 µM amounted to 74.6% in test [1]; 101% in test [2]; 99.4% in test [3]; 92.6% in test [4]; 98.9% in test [5]; 95.7% in test [6]. The remaining activity at 0.1 µM in test [7] came to 104%.
With `O=C(O)[C@]1(Cc2cccc(Nc3nccs3)n2)CC[C@@H](Oc2cccc(Cl)c2F)CC1` [MK-5108], the remaining activity at 0.1 µM worked out at 39.2% in test [1]; 126% in test [2]; 101% in test [3]; 97.5% in test [4]; 104% in test [5]; 100% in test [6]. Further, the remaining activity at 0.1 µM in test [7] was found to be 93.2%. The remaining activity at 0.5 µM was 12.5% in test [1] (500 nM); 97.9% in test [2] (500 nM); 101% in test [3] (500 nM); 78.1% in test [4] (500 nM); 113% in test [5] (500 nM); 94.5% in test [6] (500 nM). In addition, the remaining activity at 0.5 µM in test [7] (500 nM) came to 101%.

The values are drawn from article PMC4685510, “A Cell Biologist’s Field Guide to Aurora Kinase Inhibitors” (Frontiers in Oncology, 2015).
